The text below walks through data of patent publication US20240067686A1, “NOVEL PEPTIDE CAPABLE OF INHIBITING TGF-ß SIGNALING AND USE THEREOF” (Korea Institute of Science and Technology, priority 2020, published 2024).

Assay [1] relates to TGF-β cytokine released from Aspc1 cells. Nature of the assay: ELISA of TGF-β cytokine concentration in Aspc1 culture media. The settings on record: 50 ng/ml TGF-β plus peptide, 48 hours, FIG. 6. It counts as cell-based. As to the method: Specifically, the pancreatic cancer cell line Aspc1 was seeded in a 96-well plate at a density of 2×10^4 cells/well, cultured for one day, and then treated with 50 ng/ml of TGF-β or TGF-β plus inhibitor (candidate peptide and control peptide) for 48 hours, and then the concentrations of the TGF-β cytokine in the cancer cell culture media were analyzed by ELISA technique using a TGF-β detection ELISA kit. The concentration of the extracellularly released TGF-β cytokine was determined by measuring the absorbance with a multiplate reader, and the results were graphed.

In a further assay the test system is pSmad2/3 in Aspc1 cells. The experiment in a line: Western blotting of pSmad2/3 expression level in Aspc1 cells. It counts as cell-based. The settings on record: TGF-β plus candidate peptide, 24 hours, FIG. 7. As to the method:
Specifically, in order to analyze the time-dependent expression of phospho-Smad2/3 in cells by Western blotting assay, each of pancreatic cancer cell lines Bxpc3 and Aspc1 was treated with TGF-β cytokine at 50 ng/ml, and then cells obtained at different times were lysed by adding a cell lysis buffer containing a protease inhibitor (Thermo Scientific), and then sampled, thus preparing samples for Western blotting. Each of the samples was electrophoresed on SDS-PAGE gel, transferred to nitrocellulose membranes, and then blocked using skim milk powder. […] Then, the membranes were visualized by chemiluminescence using a Western ECL substrate (Thermo Scientific), and the obtained luminescence images were analyzed with Chemidoc (BioRad).
Specifically, each of the pancreatic cancer cell lines Aspc1, Bxpc3 and Panc1 was seeded in a 6-well plate at a density of 1×10^6 cells/well and cultured for one day. The next day, the cells were treated with TGF-β or TGF-β plus candidate peptide for 24 hours (control: 15% ACN—candidate peptide solvent, DMSO—P144 peptide solvent, P144), and the expression levels of pSmad2/3 and total Smad2/3 were analyzed by the Western blotting method described in Example 2.

As for “FCLGPCPYIWCLDTVLSL (P7) [candidate peptide derived from TGF-β, target TGFβRI/II]”, the “inhibition of extracellular release of TGF-β cytokine” value (from here on “inhibition … of TGF-β cytokine”) in assay [1] is “directly inhibited the extracellular release of TGF-β cytokine”.
Turning to “FCLGPCPYIWSLDTVLSL (P6) [candidate peptide derived from TGF-β, target TGFβRI/II]”, the “inhibition … of TGF-β cytokine” value in assay [1] was “directly inhibited the extracellular release of TGF-β cytokine”. For the same sequence, the “inhibition of expression level of pSmad2/3” value in the assay on pSmad2/3 in Aspc1 cells is reported as “best ability to inhibit the expression level of pSmad2/3”.
Turning to “FCLGPCPYIWCLDTF (P5) [candidate peptide derived from TGF-β, target TGFβRI/II]”, the “inhibition … of TGF-β cytokine” value in assay [1] is given as “directly inhibited the extracellular release of TGF-β cytokine”.
Consider “TIVYYVVIKPKVEQ (P14) [candidate peptide derived from TGF-β, target TGFβRII]”, for which the “inhibition … of TGF-β cytokine” value in assay [1] is listed as “directly inhibited the extracellular release of TGF-β cytokine”.
